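Interpolation was linear, between the two tested concentrations surrounding the appropriate level; five concentrations were tested over 48 hours in 96-well plates. GI50: concentration for 50% inhibition of growth.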 Calls of active or inactive are those of the source. No stated cut-off is given here; in the data, active = GI50 up to about 1.1 µM and inactive = higher.
Key:
Assay in all cases: NCI tumour cell line growth inhibition, 48 h
KM12 = test system: KM12
M14 = test system: M14
TK-10 = test system: TK-10
SW-620 = test system: SW-620
RPMI-8226 = test system: RPMI-8226
OVCAR-4 = test system: OVCAR-4
MCF7 = test system: MCF7
U-251 = test system: U-251
UACC-257 = test system: UACC-257
SF-539 = test system: SF-539
Hs-578T = test system: Hs-578T
HCT-116 = test system: HCT-116
RXF 393 = test system: RXF 393
MOLT-4 = test system: MOLT-4
SK-MEL-2 = test system: SK-MEL-2
SK-OV-3 = test system: SK-OV-3
SF-268 = test system: SF-268
SF-295 = test system: SF-295
DU-145 = test system: DU-145
HCC 2998 = test system: HCC 2998
UACC-62 = test system: UACC-62
MDA-MB-231 = test system: MDA-MB-231
CAKI-1 = test system: CAKI-1
NCI-H23 = test system: NCI-H23
A549 = test system: A549
ACHN = test system: ACHN
COLO 205 = test system: COLO 205
MDA-MB-435 = test system: MDA-MB-435
SN12C = test system: SN12C
CCRF-CEM = test system: CCRF-CEM
NCI-H460 = test system: NCI-H460
SNB-75 = test system: SNB-75
MDA-N = test system: MDA-N
SNB-19 = test system: SNB-19
OVCAR-5 = test system: OVCAR-5
K562 = test system: K562
HOP-92 = test system: HOP-92
T47D = test system: T47D
OVCAR-3 = test system: OVCAR-3
LOX IMVI = test system: LOX IMVI
BT-549 = test system: BT-549
HCT-15 = test system: HCT-15
SK-MEL-28 = test system: SK-MEL-28
UO-31 = test system: UO-31
786-0 = test system: 786-0
PC-3 = test system: PC-3
SK-MEL-5 = test system: SK-MEL-5
A498 = test system: A498
HOP-62 = test system: HOP-62
NCI-H522 = test system: NCI-H522
HT-29 = test system: HT-29
NCI-H226 = test system: NCI-H226
EKVX = test system: EKVX
Malme-3M = test system: Malme-3M
SR = test system: SR
IGROV-1 = test system: IGROV-1

In the case of `CC(C)(C)N1C(=O)[N-]/[N+](=C(/C(c2ccccc2)=[N+]2/[N-]C(=O)N(C(C)(C)C)C2=O)c2ccccc2)C1=O`, the GI50 (KM12) is reported as > 100 µM (inactive), the GI50 (M14) is reported as > 100 µM (inactive) and the GI50 (TK-10) is reported as > 100 µM (inactive). For the same compound, the GI50 (SW-620) was > 100 µM (inactive), the GI50 (RPMI-8226) was > 100 µM (inactive) and the GI50 (OVCAR-4) was > 100 µM (inactive). The GI50 (MCF7) was > 100 µM (inactive), the GI50 (U-251) was > 100 µM (inactive) and the GI50 (UACC-257) was > 100 µM (inactive). For the same compound, the GI50 (SF-539) was > 100 µM (inactive), the GI50 (Hs-578T) was > 100 µM (inactive) and the GI50 (HCT-116) was > 100 µM (inactive). The GI50 (RXF 393) was > 100 µM (inactive), the GI50 (MOLT-4) was > 100 µM (inactive) and the GI50 (SK-MEL-2) was > 100 µM (inactive). The GI50 (SK-OV-3) was > 100 µM (inactive), the GI50 (SF-268) was > 100 µM (inactive) and the GI50 (SF-295) was > 100 µM (inactive). For the same compound, the GI50 (DU-145) was > 100 µM (inactive), the GI50 (HCC 2998) was > 100 µM (inactive) and the GI50 (UACC-62) was > 100 µM (inactive). For the same compound, the GI50 (MDA-MB-231) was > 100 µM (inactive), the GI50 (CAKI-1) was > 100 µM (inactive) and the GI50 (NCI-H23) was > 100 µM (inactive). The GI50 (A549) was > 100 µM (inactive), the GI50 (ACHN) was > 100 µM (inactive) and the GI50 (COLO 205) was > 100 µM (inactive). For the same compound, the GI50 (MDA-MB-435) was > 100 µM (inactive), the GI50 (SN12C) was > 100 µM (inactive) and the GI50 (CCRF-CEM) was > 100 µM (inactive). For the same compound, the GI50 (NCI-H460) was > 100 µM (inactive), the GI50 (SNB-75) was > 100 µM (inactive) and the GI50 (MDA-N) was > 100 µM (inactive). The GI50 (SNB-19) was > 100 µM (inactive), the GI50 (OVCAR-5) was > 100 µM (inactive) and the GI50 (K562) was > 100 µM (inactive). For the same compound, the GI50 (HOP-92) was > 100 µM (inactive), the GI50 (T47D) was > 100 µM (inactive) and the GI50 (OVCAR-3) was > 100 µM (inactive). The GI50 (LOX IMVI) was > 100 µM (inactive), the GI50 (BT-549) was > 100 µM (inactive) and the GI50 (HCT-15) was > 100 µM. The GI50 (SK-MEL-28) was > 100 µM (inactive), the GI50 (UO-31) was > 100 µM (inactive) and the GI50 (786-0) was > 100 µM (inactive). The GI50 (PC-3) was > 100 µM (inactive), the GI50 (SK-MEL-5) was > 100 µM (inactive) and the GI50 (A498) was > 100 µM (inactive).

`COc1cccc(/C=C2\CCCCCC2=O)c1` was tested, and the GI50 (KM12) was 65.5 µM (inactive), the GI50 (M14) was > 100 µM (inactive) and the GI50 (TK-10) was > 100 µM (inactive). For the same compound, the GI50 (SW-620) was > 100 µM (inactive), the GI50 (RPMI-8226) was 31 µM (inactive) and the GI50 (OVCAR-4) was > 100 µM (inactive). For the same compound, the GI50 (HOP-62) was > 100 µM (inactive), the GI50 (NCI-H522) was > 100 µM (inactive) and the GI50 (HT-29) was > 100 µM (inactive). For the same compound, the GI50 (U-251) was 65.3 µM (inactive), the GI50 (UACC-257) was > 100 µM (inactive) and the GI50 (Hs-578T) was > 100 µM (inactive). For the same compound, the GI50 (HCT-116) was 80.7 µM (inactive), the GI50 (MOLT-4) was 71.9 µM (inactive) and the GI50 (SK-MEL-2) was > 100 µM (inactive). For the same compound, the GI50 (SK-OV-3) was > 100 µM (inactive), the GI50 (SF-268) was > 100 µM (inactive) and the GI50 (NCI-H226) was > 100 µM (inactive). For the same compound, the GI50 (SF-295) was > 100 µM (inactive), the GI50 (EKVX) was > 100 µM (inactive) and the GI50 (DU-145) was > 100 µM (inactive). The GI50 (HCC 2998) was > 100 µM (inactive), the GI50 (UACC-62) was > 100 µM (inactive) and the GI50 (MDA-MB-231) was > 100 µM (inactive). The GI50 (CAKI-1) was > 100 µM (inactive), the GI50 (NCI-H23) was > 100 µM (inactive) and the GI50 (A549) was > 100 µM (inactive). For the same compound, the GI50 (ACHN) was > 100 µM (inactive), the GI50 (COLO 205) was > 100 µM (inactive) and the GI50 (MDA-MB-435) was 48.1 µM (inactive). The GI50 (SN12C) was > 100 µM (inactive), the GI50 (NCI-H460) was 52 µM (inactive) and the GI50 (SNB-75) was 62.5 µM (inactive). The GI50 (MDA-N) was > 100 µM (inactive), the GI50 (SNB-19) was 19.7 µM (inactive) and the GI50 (OVCAR-5) was > 100 µM (inactive). For the same compound, the GI50 (K562) was 72.3 µM (inactive), the GI50 (HOP-92) was > 100 µM (inactive) and the GI50 (T47D) was > 100 µM (inactive). For the same compound, the GI50 (Malme-3M) was > 100 µM (inactive), the GI50 (OVCAR-3) was > 100 µM (inactive) and the GI50 (LOX IMVI) was > 100 µM (inactive). For the same compound, the GI50 (BT-549) was > 100 µM (inactive), the GI50 (HCT-15) was > 100 µM and the GI50 (SK-MEL-28) was > 100 µM (inactive). The GI50 (SR) was 26.7 µM (inactive), the GI50 (IGROV-1) was > 100 µM (inactive) and the GI50 (UO-31) was 81.5 µM (inactive). For the same compound, the GI50 (786-0) was > 100 µM (inactive), the GI50 (PC-3) was > 100 µM (inactive) and the GI50 (SK-MEL-5) was 70.1 µM (inactive). The GI50 (A498) was > 100 µM (inactive).
